Measurements taken from patent publication US20220096449A1, “METHOD OF TREATMENT WITH TRADIPITANT” (Vanda Pharmaceuticals Inc., priority 2018, published 2022).
Marks after values point to notes of the source that are not given here.

Columns and labels:
[1] = tested on: patients with gastroparesis; assay: Phase II gastroparesis study, open label extension (Example 4); format: in vivo, human
Description: In a phase II study of tradipitant in patients with gastroparesis, participants initially enter 4 week screening period prior to treatment with tradipitant, during which they answer a daily symptom questionnaire rating their nausea severity on a scale of 0 to 5, in which 0 represents no nausea, 1 represents very mild nausea, 2 represents mild nausea, 3 represents moderate nausea, 4 represents severe nausea, and 5 represents very severe nausea. After the 4 week screening period, patients enter the double blind randomized portion of the study, in which they receive either tradipitant 85 mg bid, or placebo. After 4 weeks of blinded study drug treatment, patients have the opportunity to enter an additional 8 week open label extension, during which each subject receives tradipitant 85 mg bid. 64 subjects participate in at least one week of the open label tradipitant dosing portion of the study. The average daily diarized nausea scores are reported for subjects during the 4 week screening period and during the up to 8 week open label extension.

[2] = tested on: patients with idiopathic and diabetic gastroparesis; assay: Phase II study VLY-686-2301, double blind randomized portion (Example 5); format: in vivo, human; settings: for CGI-S, change from baseline / DD-% Nausea Free Days, change from baseline / DD-Nausea (Daily Diary Nausea Score, 0-5), change from baseline / GCSI, change from baseline / PAGI-SYM, change from baseline / PGI-C: 4 weeks; for Daily Diary Nausea Weekly Average, Effect size estimate: tradipitant treatment arm
Description: In a phase II study of tradipitant in patients with idiopathic and diabetic gastroparesis, participants enter a 4 week screening period prior to treatment with tradipitant, during which they answer a daily symptom questionnaire rating their nausea severity on a scale of 0 to 5, in which 0 represents no nausea, 1 represents very mild nausea, 2 represents mild nausea, 3 represents moderate nausea, 4 represents severe nausea, and 5 represents very severe nausea. After the 4 week screening period, 141 gastroparesis patients in an Intent to Treat (ITT) population enter the 4 week double blind randomized portion of the study, in which they receive either tradipitant 85 mg bid, or placebo. Several symptom severity scales are used to assess gastroparesis symptoms, including the […] (GCSI), Patients Assessment of Upper Gastrointestinal Disorders-Symptoms (PAGI-SYM), and Patient Global Impression of Change (PGI-C), as well as a Clinician Global Impression of Severity (CGI-S). After 4 weeks of blinded study drug treatment, patients have the opportunity to enter an additional 8 week open label extension, during which each subject receives tradipitant 85 mg bid.
Abbreviations used in Table 6 include: Daily Diary Nausea Score, 0-5 (DD-Nausea); Daily Diary Nausea Free Days, percent 0-100 (DD-% Nausea Free Days); Intent to Treat (ITT); Gastroparesis Cardinal Symptom Index (GCSI); Patient Assessment of Gastrointestinal Disorders-Symptoms (PAGI-SYM); Clinician Global Impression of Severity (CGI-S); Patient Global Impression of Change (PGI-C). For DD-Nausea, DD-% Nausea Free Days, GCSI, PAGI-SYM and CGI-S, the values shown are changes from baseline.

[3] = tested on: panel of 74 other receptors, enzymes, and ion channels; assay: Binding panel of 74 other receptors, enzymes and ion channels; settings: test concentration of 1 μM; any of 74 targets
[4] = tested on: apomorphine-induced emesis; assay: Apomorphine emetic challenge in beagle dogs; format: in vivo, beagle dog; settings: for Total No. Emetic Episodes: apomorphine 0.1 mg/kg iv 2 hours later, 5 dogs
Description: Over the five (5) weeks of the study, each animal receives each of the treatments, but only one per week. The purpose of this study is to determine if tradipitant suppresses apomorphine-induced emesis.
All animals are dosed over a period of five (5) weeks, with each dog receiving one of five different treatments on each day of dosing.
All dogs are fasted overnight prior to each treatment day and then fed approximately one (1) hour after oral dosing (approximately one (1) hour prior to administration of apomorphine). Individual doses are adjusted weekly for changes in body weight.
The dose regimen consists of a 5×5 Latin square design, in which each subject receives 1 dose or dose combination per week (6 day washout) as shown in Table 3 below.

[5] = molecular target: T1, NK-3 receptor (Homo sapiens, UniProt P29371); assay: NK-3 receptor inhibition; format: binding
T1 sequence (P29371 1-465): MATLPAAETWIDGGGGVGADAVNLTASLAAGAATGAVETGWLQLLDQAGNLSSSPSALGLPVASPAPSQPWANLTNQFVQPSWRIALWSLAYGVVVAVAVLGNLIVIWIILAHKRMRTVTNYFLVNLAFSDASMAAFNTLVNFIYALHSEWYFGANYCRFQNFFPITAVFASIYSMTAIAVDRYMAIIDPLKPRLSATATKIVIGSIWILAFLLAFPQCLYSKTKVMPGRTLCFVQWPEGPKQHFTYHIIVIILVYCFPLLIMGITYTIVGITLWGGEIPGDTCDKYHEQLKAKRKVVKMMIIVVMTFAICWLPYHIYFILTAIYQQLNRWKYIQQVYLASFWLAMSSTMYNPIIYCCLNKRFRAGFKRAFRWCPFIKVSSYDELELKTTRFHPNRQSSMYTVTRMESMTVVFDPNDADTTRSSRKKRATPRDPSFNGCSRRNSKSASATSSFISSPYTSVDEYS

[6] = tested on: healthy subjects; assay: Gamma scintigraphic gastrointestinal motility study in healthy subjects; format: in vivo, human; settings: single oral dose 20 mg or 200 mg
Description: A single-center, randomized, double-blind, placebo-controlled study is conducted to investigate the effect of tradipitant on small bowel transit time. A total of 15 healthy subjects, 12 men and 3 women, between the ages of 19 and 63 years are enrolled in the study and receive at least 1 dose of study medication. A total of 13 subjects complete the study. Subjects are randomized to receive 20 mg of tradipitant, 200 mg of tradipitant, or placebo as a single oral dose within each of 3 periods, co-administered with a capsule radiolabeled with a maximum of 1MBq ^111In. Four hours post-dose, all subjects also receive a second capsule radiolabeled with a maximum of 4MBq ^99mTc. Each subject receives all 3 doses during the study. For all dosing regimens, in vivo gamma scintigraphic studies are performed at predetermined intervals, and the following scintigraphic parameters are analyzed: onset and completion of gastric emptying, onset and completion of colon arrival, initiation and completion of small bowel transit, and initial and complete disintegration of the capsule (anatomical location and time).

[7] = ITT Population, 85 mg bid, n = 73
[8] = Vomiting Population, 85 mg bid, n = 58

## O=C(c1ccccc1Cl)c1cccnc1-c1nnn(Cc2cc(C(F)(F)F)cc(C(F)(F)F)c2)c1-c1ccncc1 [Tradipitant, {2-[1-(3,5-bistrifluoromethylbenzyl)-5-pyridin-4-yl-1H-[1,2,3]triazol-4-yl]-pyridin-3-yl}-(2-chlorophenyl)-methanone]
[1]; 0 to 5 scale, open label 85 mg bid for 1 to 8 weeks, 64 patients
  mean daily nausea score: about 1.63
[1]; 0 to 5 scale, open label extension 85 mg bid, 64 subjects
  median daily nausea score: 1.35
[1]; 85 mg bid
  change of average percentage of nausea-free days compared to pre-treatment: doubled or greater
  reduction of average daily nausea scores compared to pre-treatment: reduced by approximately one half
[1]; open label extension 85 mg bid
  mean percentage of days nausea-free: 45.91%
  median percentage of nausea-free days: 49.11%
[2]; 85 mg bid, confirms prior studies' findings
  tolerability: well tolerated
[2]; [7]
  CGI-S, change from baseline: −1.13
  DD-% Nausea Free Days, change from baseline: 28.8%
  DD-Nausea (Daily Diary Nausea Score, 0-5), change from baseline: −1.25
  GCSI, change from baseline: −0.93
  PAGI-SYM, change from baseline: −0.93
  PGI-C: 2.66
[2]; ITT Population, 85 mg bid, n = 73, listed as tradipitant
  DD-Nausea (Daily Diary Nausea Score, 0-5), change from baseline: −1.2
[2]; [8]
  CGI-S, change from baseline: −1.24
  DD-% Nausea Free Days, change from baseline: 32.3%
  DD-Nausea (Daily Diary Nausea Score, 0-5), change from baseline: −1.43
  GCSI, change from baseline: −1.10
  PAGI-SYM, change from baseline: −1.06
  PGI-C: 2.52
[2]; Vomiting Population, 85 mg bid, n = 58, listed as tradipitant
  DD-Nausea (Daily Diary Nausea Score, 0-5), change from baseline: −1.4
[2]; Week 1 vs Week 2
  Daily Diary Nausea Weekly Average, Effect size estimate: 0.314
[2]; Week 1 vs Week 3
  Daily Diary Nausea Weekly Average, Effect size estimate: 0.5556
[2]; Week 1 vs Week 4
  Daily Diary Nausea Weekly Average, Effect size estimate: 0.592
[2]; Week 2 vs Week 3
  Daily Diary Nausea Weekly Average, Effect size estimate: 0.2416
[2]; Week 2 vs Week 4
  Daily Diary Nausea Weekly Average, Effect size estimate: 0.278
[2]; Week 3 vs Week 4
  Daily Diary Nausea Weekly Average, Effect size estimate: 0.03647
[3]
  inhibition of binding: ≤ 50%
[4]; 0.3 mg/kg oral
  Total No. Emetic Episodes: 1**
[4]; 1.0 mg/kg oral
  Total No. Emetic Episodes: 1**
[4]; 3.0 mg/kg oral
  Total No. Emetic Episodes: 1**
[4]; each dose tested (0.3, 1.0, and 3.0 mg/kg)
  effect against apomorphine-induced emesis: effective
[5]
  inhibition at NK-3 receptor: no significant inhibition
[6]
  effect on small bowel transit time: statistically significant effect
[6]; study underpowered
  effect on gastric emptying: No effect
